Measurements taken from patent publication US20250099423A1, “PIPERAZINE-BASED AGONISTS OF LFA-1 AND VLA-4” (Texas Heart Institute, priority 2021, published 2025).

How the values were obtained:
α4β1/VCAM-1 = target: T1, α4β1/VCAM-1 (Homo sapiens, UniProt P05556+P13612); test: Static cell adhesion assay, Jurkat cells on VCAM-1 (α4β1/VCAM-1); type: cell-based; details: ratio compound activity/control THI0019 (average 33 μM) run on the same plate
T1 construct: The Jurkat (VCAM-1 assays) and HSB (ICAM-1 assays) cell lines were obtained from American Type Culture Collection; endogenous in cells; host or cells: Jurkat cells (ATCC)
Description: (§1) For in vitro cell adhesion assays, compounds were dissolved in DMSO to make a series of stock solutions such that a 1:100 dilution in assay buffer would yield the desired final working concentrations in 1% DMSO (vehicle). Human VCAM-1 and ICAM-1 were purchased from R&D Systems (Minneapolis, MN). The Jurkat (VCAM-1 assays) and HSB (ICAM-1 assays) cell lines were obtained from American Type Culture Collection (Manassas, VA) and were maintained in recommended culture media.
(§2) Assays were performed as previously described in 1. Vanderslice, P., Woodside, D. G., Caivano, A. R., Decker, E. R., Munsch, C. L., Sherwood, S. J., Lejeune, W. S., Miyamoto, Y. J., McIntyre, B. W., Tilton, R. G., and Dixon, R. A. (2010) Potent in vivo suppression of inflammation by selectively targeting the high affinity conformation of integrin alpha4beta1. Biochem Biophys Res Commun 400, 619-624; and 2. Vanderslice, P., Biediger, R. J., Woodside, D. G., Brown, W. S., Khounlo, S., Warier, N. D., Gundlach, C. W. t., Caivano, A. R., Bornmann, W. G., Maxwell, D. S., McIntyre, B. W., Willerson, J. T., and Dixon, R. A. (2013) Small molecule agonist of very late antigen-4 (VLA-4) integrin induces progenitor cell adhesion. J Biol Chem 288, 19414-19428. VCAM-1 or ICAM-1 ligand in 50 μL of 50 mM Tris-HCl (pH 7.4), 150 mM NaCl, (TBS) was added to wells of a 96-well plate and allowed to coat overnight at 4° C. To maximize the window to evaluate agonist activity, a sub-optimal coating concentration of ligand was used, typically between 0.5 and 5 μg/mL in 50 μL TBS for VCAM-1 and ICAM-1 respectively. This ligand concentration corresponded approximately to that which would yield≤ 5% adhesion as determined by dose-response curves. Briefly, 2×10^6 cells were labeled for 30 minutes with calcein-AM (Molecular Probes), washed, resuspended in binding buffer, and added to triplicate wells of ligand-coated plates (2×10^5 cells/well) that had been blocked with 2% BSA. After a 30-minute incubation at 37° C., the plates were washed 3 times with binding buffer, the adherent cells were lysed, and fluorescence was measured on a Tecan Safire^2 plate reader. The binding buffer was PBS with 1 mM MgCl2, 50% FBS for α4β1/VCAM-1 assays and PBS with 2 mM MgCl2, 5 mM EGTA, 50% FBS for αLβ2/ICAM-1 assays. EC50 is defined as the concentration of compound required to achieve 50% of the maximal response.

LFA-1 = target: T2, LFA-1 (Homo sapiens, UniProt P05107+P20701); test: Static cell adhesion assay, HSB cells on ICAM-1 (αLβ2/ICAM-1; LFA-1); type: cell-based; details: Dose 3 μM, compound and THI0349 at the same concentration; ratio >1 = more potent agonist
T2 construct: The Jurkat (VCAM-1 assays) and HSB (ICAM-1 assays) cell lines were obtained from American Type Culture Collection; endogenous in cells; host or cells: HSB cells (ATCC)
Description: as §1, §2
THI0019 and THI0349 (average 11 μM) reported values here were obtained under the assay conditions reported herein and ran higher in the presence of serum than those values under different assay conditions. […] Relative to THI0019 (average 33 μM) as a control against CS1, the ratio of (compound activity/control) is as follows: Group I< or =1. Group II at least a ratio of >1 up to 2× that of THI0019 ran on the same plate; Group III is >2× of THI0019 but less than 5×; and Group IV>5× of THI0019 (with an upper limit of approximately 200 mM). In relation to LAD (Leukocyte Adhesion Deficiency), LFA-1 ratios are determined by dividing the relative fluorescence units (RFU) of each compound over that of the reference standard of THI0349, (RFU Compound/RFU of THI0349). Against LFA-1, the signal for THI0349 at 3 μM was compared to the claimed compounds at the same concentration.

T2 sequence (P20701 26-1170): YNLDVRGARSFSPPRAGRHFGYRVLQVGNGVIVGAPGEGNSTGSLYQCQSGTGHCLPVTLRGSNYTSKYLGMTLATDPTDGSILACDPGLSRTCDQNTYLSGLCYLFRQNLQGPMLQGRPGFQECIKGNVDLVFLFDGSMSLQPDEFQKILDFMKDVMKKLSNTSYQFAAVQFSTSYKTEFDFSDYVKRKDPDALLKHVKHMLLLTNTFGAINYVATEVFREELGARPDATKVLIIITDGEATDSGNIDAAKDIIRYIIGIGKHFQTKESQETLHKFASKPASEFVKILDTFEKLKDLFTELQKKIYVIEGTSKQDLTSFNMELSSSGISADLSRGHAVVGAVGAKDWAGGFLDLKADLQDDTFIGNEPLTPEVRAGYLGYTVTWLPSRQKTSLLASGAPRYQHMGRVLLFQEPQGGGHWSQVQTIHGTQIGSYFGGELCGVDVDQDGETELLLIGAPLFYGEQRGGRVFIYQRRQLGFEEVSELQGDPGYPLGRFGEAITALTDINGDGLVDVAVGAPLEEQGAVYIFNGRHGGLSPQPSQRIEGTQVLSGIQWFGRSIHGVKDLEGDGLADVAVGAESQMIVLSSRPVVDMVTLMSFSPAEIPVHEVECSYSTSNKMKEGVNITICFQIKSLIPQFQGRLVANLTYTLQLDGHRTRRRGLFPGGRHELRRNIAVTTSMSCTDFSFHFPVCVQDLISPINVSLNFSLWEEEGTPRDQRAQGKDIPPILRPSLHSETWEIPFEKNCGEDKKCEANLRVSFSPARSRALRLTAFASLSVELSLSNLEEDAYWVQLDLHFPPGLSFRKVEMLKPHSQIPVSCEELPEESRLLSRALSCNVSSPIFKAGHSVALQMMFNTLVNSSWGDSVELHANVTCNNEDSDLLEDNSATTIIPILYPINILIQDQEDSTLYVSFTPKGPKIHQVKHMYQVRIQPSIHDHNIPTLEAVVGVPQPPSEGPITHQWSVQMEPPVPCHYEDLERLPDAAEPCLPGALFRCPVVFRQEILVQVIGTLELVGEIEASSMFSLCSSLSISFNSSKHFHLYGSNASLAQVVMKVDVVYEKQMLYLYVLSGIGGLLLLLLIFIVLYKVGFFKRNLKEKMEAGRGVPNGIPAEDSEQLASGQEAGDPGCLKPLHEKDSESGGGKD
T2 sequence (P05107 23-769): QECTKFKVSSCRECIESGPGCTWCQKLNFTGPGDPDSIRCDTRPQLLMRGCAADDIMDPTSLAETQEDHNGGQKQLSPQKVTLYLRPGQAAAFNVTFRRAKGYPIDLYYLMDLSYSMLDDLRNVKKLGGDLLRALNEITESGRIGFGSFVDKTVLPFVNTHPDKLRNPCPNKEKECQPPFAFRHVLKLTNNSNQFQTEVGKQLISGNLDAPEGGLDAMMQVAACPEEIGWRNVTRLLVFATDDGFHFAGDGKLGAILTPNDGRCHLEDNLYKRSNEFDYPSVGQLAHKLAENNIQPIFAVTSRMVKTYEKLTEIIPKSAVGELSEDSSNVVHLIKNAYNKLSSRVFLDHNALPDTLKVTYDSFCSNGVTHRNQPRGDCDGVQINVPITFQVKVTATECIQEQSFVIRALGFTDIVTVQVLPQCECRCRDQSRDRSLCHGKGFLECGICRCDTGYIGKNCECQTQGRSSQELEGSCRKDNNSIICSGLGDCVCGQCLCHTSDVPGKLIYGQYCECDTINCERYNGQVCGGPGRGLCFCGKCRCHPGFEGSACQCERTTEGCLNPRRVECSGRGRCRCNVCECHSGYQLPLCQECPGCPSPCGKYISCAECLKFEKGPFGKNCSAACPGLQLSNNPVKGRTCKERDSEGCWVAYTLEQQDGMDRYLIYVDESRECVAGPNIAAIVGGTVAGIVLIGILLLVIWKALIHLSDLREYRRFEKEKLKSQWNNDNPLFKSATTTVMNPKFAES
T1 sequence (P13612 34-1032): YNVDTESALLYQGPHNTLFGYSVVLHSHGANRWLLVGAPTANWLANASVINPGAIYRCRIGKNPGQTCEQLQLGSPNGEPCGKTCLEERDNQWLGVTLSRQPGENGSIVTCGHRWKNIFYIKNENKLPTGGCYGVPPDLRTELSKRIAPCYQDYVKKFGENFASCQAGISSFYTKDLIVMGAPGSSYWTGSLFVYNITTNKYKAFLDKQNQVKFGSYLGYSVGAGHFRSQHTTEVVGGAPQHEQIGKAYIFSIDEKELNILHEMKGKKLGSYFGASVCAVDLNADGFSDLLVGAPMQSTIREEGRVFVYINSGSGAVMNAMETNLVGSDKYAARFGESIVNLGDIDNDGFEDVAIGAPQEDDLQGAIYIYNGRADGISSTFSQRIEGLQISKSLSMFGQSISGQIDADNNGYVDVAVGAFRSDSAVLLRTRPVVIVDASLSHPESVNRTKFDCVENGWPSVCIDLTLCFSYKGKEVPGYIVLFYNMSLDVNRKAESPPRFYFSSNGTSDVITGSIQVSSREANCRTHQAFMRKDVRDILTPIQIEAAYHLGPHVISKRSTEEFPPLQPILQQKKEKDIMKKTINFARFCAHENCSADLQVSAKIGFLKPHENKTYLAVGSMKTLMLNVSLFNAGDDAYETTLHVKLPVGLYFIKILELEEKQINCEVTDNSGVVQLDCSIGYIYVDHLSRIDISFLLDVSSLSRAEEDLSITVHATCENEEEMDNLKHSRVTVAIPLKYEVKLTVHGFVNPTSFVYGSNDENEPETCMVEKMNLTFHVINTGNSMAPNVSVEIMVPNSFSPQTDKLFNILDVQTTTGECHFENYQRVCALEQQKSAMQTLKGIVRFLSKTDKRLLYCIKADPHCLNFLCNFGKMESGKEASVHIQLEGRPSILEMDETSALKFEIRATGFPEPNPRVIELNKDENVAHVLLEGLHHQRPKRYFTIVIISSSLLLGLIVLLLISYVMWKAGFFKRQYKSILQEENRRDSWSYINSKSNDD
T1 sequence (P05556 21-798): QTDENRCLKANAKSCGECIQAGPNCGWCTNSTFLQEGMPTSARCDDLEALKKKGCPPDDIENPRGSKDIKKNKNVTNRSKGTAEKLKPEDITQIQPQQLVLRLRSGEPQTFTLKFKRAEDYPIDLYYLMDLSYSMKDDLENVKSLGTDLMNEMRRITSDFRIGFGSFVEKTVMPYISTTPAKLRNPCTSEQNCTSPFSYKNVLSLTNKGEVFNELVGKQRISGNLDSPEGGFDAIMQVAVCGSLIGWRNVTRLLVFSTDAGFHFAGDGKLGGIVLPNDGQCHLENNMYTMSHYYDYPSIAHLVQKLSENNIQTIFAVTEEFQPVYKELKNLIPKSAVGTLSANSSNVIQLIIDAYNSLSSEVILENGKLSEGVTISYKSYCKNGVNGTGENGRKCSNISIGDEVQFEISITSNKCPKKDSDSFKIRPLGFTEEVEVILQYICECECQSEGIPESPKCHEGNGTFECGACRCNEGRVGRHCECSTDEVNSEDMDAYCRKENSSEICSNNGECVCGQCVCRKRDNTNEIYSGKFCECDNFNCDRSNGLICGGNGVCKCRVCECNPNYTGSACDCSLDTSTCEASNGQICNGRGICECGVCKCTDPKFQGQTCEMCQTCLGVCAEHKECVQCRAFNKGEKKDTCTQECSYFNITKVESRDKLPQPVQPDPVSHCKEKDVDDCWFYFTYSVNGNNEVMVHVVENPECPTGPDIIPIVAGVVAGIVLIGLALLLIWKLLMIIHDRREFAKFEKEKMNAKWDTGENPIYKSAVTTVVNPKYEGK

| Structure (SMILES) | Average Ratio Compound to THI0019 (Activity against CS1) (α4β1/VCAM-1) | LAD Raw Fluorescence Units against LFA-1; Ratio of raw counts Compound/THI0349 (LFA-1) |
| --- | --- | --- |
| COc1cccc(CN(Cc2cccc(OC)c2)C(=O)CCCCN2CCN(C(=O)OCc3ccccc3)CC2)c1 [benzyl 4-(5-(bis(3-methoxybenzyl)amino)-5-oxopentyl)piperazine-1-carboxylate] | Group II (Group II at least a ratio of >1 up to 2× that of THI0019 ran on the same plate) | 3.9 fold increased response |
| COc1ccc(CN(Cc2ccc(OC)cc2)C(=O)CN2CCN(Cc3cccc(OC)c3)CC2=O)cc1 [N,N-bis(4-methoxybenzyl)-2-(4-(3-methoxybenzyl)-2-oxopiperazin-1-yl)acetamide] | Group IV (Group IV>5× of THI0019 (with an upper limit of approximately 200 mM)) | 1.1 fold increased response |
| COc1ccc(CN(Cc2ccc(OC)cc2)C(=O)CN2CCN(C(=O)OCc3cccc(OC)c3)CC2)cc1 [3-methoxybenzyl 4-(2-(bis(4-methoxybenzyl)amino)-2-oxoethyl)piperazine-1-carboxylate] | Group II (Group II at least a ratio of >1 up to 2× that of THI0019 ran on the same plate) | 2.2 fold increased response |
| COc1cccc(CN(Cc2cccc(OC)c2)C(=O)OCCN2CC(=O)N(CCOC(=O)N(Cc3cccc(OC)c3)Cc3cccc(OC)c3)CC2=O)c1 [(2,5-dioxopiperazine-1,4-diyl)bis(ethane-2,1-diyl) bis(bis(3-methoxybenzyl)carbamate)] | Group I (Group I< or =1) | 3.4 fold increased response |
| COc1ccc(CN(Cc2ccc(OC)cc2)C(=O)CN2CCN(CC(=O)N(Cc3ccc(OC)cc3)Cc3ccc(OC)cc3)CC2)cc1 [2,2′-(piperazine-1,4-diyl)bis(N,N-bis(4-methoxybenzyl)acetamide)] | Group I (Group I< or =1) | – |
| COc1ccc(CCOC(=O)N2CCN(CC(=O)N(Cc3ccc(OC)cc3)Cc3ccc(OC)cc3)CC2)cc1 [4-methoxyphenethyl 4-(2-(bis(4-methoxybenzyl)amino)-2-oxoethyl)piperazine-1-carboxylate] | Group II (Group II at least a ratio of >1 up to 2× that of THI0019 ran on the same plate) | 4.6 fold increased response |
| COc1cccc(CN(Cc2cccc(OC)c2)C(=O)OCCN2CCN(CCOC(=O)N(Cc3cccc(OC)c3)Cc3cccc(OC)c3)CC2)c1 [piperazine-1,4-diylbis(ethane-2,1-diyl) bis(bis(3-methoxybenzyl)carbamate)] | Group I (Group I< or =1) | 4.7 fold increased response |
| COc1ccc(CN(Cc2ccc(OC)cc2)C(=O)OCCN2CC(=O)N(CCOC(=O)N(Cc3ccc(OC)cc3)Cc3ccc(OC)cc3)CC2=O)cc1 [(2,5-dioxopiperazine-1,4-diyl)bis(ethane-2,1-diyl) bis(bis(4-methoxybenzyl)carbamate)] | Group I (Group I< or =1) | 7.8 fold increased response |
| CN(C)c1ccc(CN(Cc2ccc(N(C)C)cc2)C(=O)CN2CC(=O)N(CC(=O)N(Cc3ccc(N(C)C)cc3)Cc3ccc(N(C)C)cc3)CC2=O)cc1 [2,2′-(2,5-dioxopiperazine-1,4-diyl)bis(N,N-bis(4-(dimethylamino)benzyl)acetamide)] | Group I (Group I< or =1) | – |
| O=C1CN(CCOC(=O)N(Cc2cccs2)Cc2cccs2)C(=O)CN1CCOC(=O)N(Cc1cccs1)Cc1cccs1 [(2,5-dioxopiperazine-1,4-diyl)bis(ethane-2,1-diyl) bis(bis(thiophen-2-ylmethyl)carbamate)] | Group II (Group II at least a ratio of >1 up to 2× that of THI0019 ran on the same plate) | 2 fold increased response |
| O=C1CN(CC(=O)N(Cc2cccs2)Cc2cccs2)C(=O)CN1CC(=O)N(Cc1cccs1)Cc1cccs1 [2,2′-(2,5-dioxopiperazine-1,4-diyl)bis(N,N-bis(thiophen-2-ylmethyl)acetamide)] | Group III (Group III is >2× of THI0019 but less than 5×) | – |
| COc1ccc(CN(Cc2ccc(N(C)C)cc2)C(=O)CN2CCN(C(=O)OCc3cccc(OC)c3)CC2=O)cc1 [3-methoxybenzyl 4-(2-((4-(dimethylamino)benzyl)(4-methoxybenzyl)amino)-2-oxoethyl)-3-oxopiperazine-1-carboxylate] | Group II (Group II at least a ratio of >1 up to 2× that of THI0019 ran on the same plate) | 4.2 fold increased response |
| O=C(CN1CCN(C(=O)OCc2ccccc2)CC1)N(Cc1ccc(O)cc1)Cc1ccc(O)cc1 [benzyl 4-(2-(bis(4-hydroxybenzyl)amino)-2-oxoethyl)piperazine-1-carboxylate] | Group I (Group I< or =1) | 0.3 fold response |
| COc1cccc(CN(Cc2cccc(OC)c2)C(=O)CN2CC(=O)N(CC(=O)N(Cc3cccc(OC)c3)Cc3cccc(OC)c3)CC2=O)c1 [2,2′-(2,5-dioxopiperazine-1,4-diyl)bis(N,N-bis(3-methoxybenzyl)acetamide)] | Group I (Group I< or =1) | – |
| COc1ccc(CN(Cc2ccc(OC)cc2)C(=O)CN2CCN(C(=O)c3cccc(OC)c3)CC2=O)cc1 [2-(4-(3-methoxybenzoyl)-2-oxopiperazin-1-yl)-N,N-bis(4-methoxybenzyl)acetamide] | Group IV (Group IV>5× of THI0019 (with an upper limit of approximately 200 mM)) | 0.6 fold response |
| COc1ccc(CN(Cc2ccc(OC)cc2)C(=O)CN2CCN(C(=O)Cc3cccc(OC)c3)CC2=O)cc1 [N,N-bis(4-methoxybenzyl)-2-(4-(2-(3-methoxyphenyl)acetyl)-2-oxopiperazin-1-yl)acetamide] | Group III (Group III is >2× of THI0019 but less than 5×) | 0.5 fold response |
| COc1ccc(CN(Cc2ccc(OC)cc2)C(=O)CCCN2CCN(C(=O)OCc3ccccc3)CC2)cc1 [benzyl 4-(4-(bis(4-methoxybenzyl)amino)-4-oxobutyl)piperazine-1-carboxylate] | Group I (Group I< or =1) | 3 fold increased response |
| COc1ccc(CN(Cc2ccc(OC)cc2)C(=O)CN2CCN(C(=O)OCc3ccccc3)CC2)cc1 [benzyl 4-(2-(bis(4-methoxybenzyl)amino)-2-oxoethyl)piperazine-1-carboxylate] | Group II (Group II at least a ratio of >1 up to 2× that of THI0019 ran on the same plate) | 3.3 fold increased response |
| COc1ccc(CN(Cc2cccc(N(C)C)c2)C(=O)CN2CC(=O)N(CC(=O)N(Cc3ccc(OC)cc3)Cc3cccc(N(C)C)c3)CC2=O)cc1 | Group II (Group II at least a ratio of >1 up to 2× that of THI0019 ran on the same plate) | – |
